Data published in patent US11746103B2, “ALK-5 inhibitors and uses thereof” (Sumitomo Pharma Oncology, Inc., priority 2020, dated 2023).
“Also recorded” adds a separate entry of the source.

Columns and labels:
pSmad2 in KGN cells = test: pSmad2 Luminex assay in KGN cell line; assay type: cell-based; details: 2 hours, read-out: pSmad2 pathway inhibition
Description: KGN cells were incubated with three 10-fold dilutions of EX-11 or DMSO for 2 hours. Cells were harvested and lysed, and protein concentration was quantified by BCA. 10 μg of total protein was added to the assay plate provided in the Milliplex TGFβ 6-plex kit with GAPDH MapMate beads, and the manufacturer's protocol was followed. Data was collected on the MagPix Xmap (Luminex).

EMT6 tumors = test: Immunohistochemistry (CD31, CD45) of EMT6 tumors; assay type: in vivo, mouse
Text: EX-11 is an ALK5 inhibitor that has been proposed to affect multiple processes in the tumor microenvironment through downregulation of TGF-β signaling, including vasculature remodeling and leukocyte infiltration. The objective of this study was to compare the levels of CD31 and CD45, subject to different treatment conditions in 4T1, EMT6, and S91 tumors. CD31 is an established marker of vascular differentiation, and CD45 is an established marker of leukocytes.
For IHC analyses, tumors from three syngeneic models of cancer were used: • 1) Example L: 4T1 (triple-negative breast cancer [TNBC]); Balb/c mice • 2) Example K: EMT6 (TNBC); Balb/C mice • 3) Example M: S91 (melanoma); DBA/2 mice
Tumors were fixed in formalin for 48 hours, then stored in […] prior to paraffin embedding. Embedded blocks were sectioned at […] and placed on glass slides for IHC staining.
Leica Biosystems Bond Software and Leica Bond Rx Research Stainer were used per protocol to stain tissue sections. […] Images were manually scored by a pathologist, blinded to treatment information. […] CD45 was scored by calculating the number of CD45-positive cells divided by the total number of viable nucleated cells within the whole tumor region(s). CD31 density was scored by calculating the total number of CD31 positive vessels divided by the whole tumor area (mm^2).

ES-2-luc cells = test: Cachexia model (ES-2 clear cell carcinoma); assay type: in vivo, mouse; details: 150 mg/Kg BID
Text: TGF-β1 signaling regulates ovarian cancer progression during initial carcinogenesis, tumor dissemination, and reestablishment of ascites through peritoneal cavity. Clear cell carcinoma is a specifically aggressive and therapy-resistant subtype of epithelial ovarian cancer. ES-2 clear cell carcinoma in vivo model was used to test efficacy of EX-11 in reducing ovarian tumor burden as determined by ascites fluid volume assessment. Because ALK5 signaling can regulate muscle growth and wasting, the efficacy of EX-11 in preventing ovarian cancer-induced cachexia was tested. Muscle health was assessed using histological evaluation of heart muscle tissue, and by comparison of gross weight of hind limb between the different treatment groups.
Sixteen-week-old female athymic nude mice were injected with two million ES-2-luc cells. […]
Mortality was recorded for animals found dead in the cage, and for the animals sacrificed based on humane end point based on main three criteria—loss of mobility and response, wasting with pronounced ascites fluid buildup, and palpable drop in body temperature (animals were assessed as cold to touch when handled in gloves).
On study day 22, the remaining surviving animals in the vehicle group were determined moribund, and the study was terminated based on humane end point criteria. […]

Cc1cccc2c(Nc3ccnc(Nc4cccc(N5CCOCC5)c4)n3)cnnc12 [EX-11, N4-(8-methylcinnolin-4-yl)-N2-(3-morpholinophenyl)pyrimidine-2,4-diamine]
inhibition at 0.01 µM (pSmad2 in KGN cells; Homo sapiens, 10 nM): 17%
inhibition at 0.1 µM (pSmad2 in KGN cells; Homo sapiens, 100 nM): 74%
inhibition at 1 µM (pSmad2 in KGN cells; Homo sapiens, 1,000 nM): 97%
CD31 staining (blood vessel density) (EMT6 tumors): no difference in CD31 staining
CD45 (percentage of CD45+ cells) (EMT6 tumors; vs anti-PD-1 and vehicle groups): increased
ascites fluid volume compared to vehicle (ES-2-luc cells): reduction in total fluid volume; also recorded: reduced ascites fluid volume
whole hind limb weight compared to vehicle (ES-2-luc cells): recorded higher; also recorded: improved hind limb weight retention
